Results from patent publication US20060154243A1 (priority 2003, published 2006).

Assays:
Assay type in all cases: binding, human
serum 62 (individual 62) = system: serum 62 (individual 62)
serum 2 (individual 2) = system: serum 2 (individual 2)
[1] = system: control serum Blood-bank (commercial negative donor pooled serum)
[2] = system: control serum LUMC (pooled serum of ten healthy hospital workers)
serum SARS-yellow = system: serum SARS-yellow
[3] = system: serum 1a (individual 1, early serum)
serum London = system: serum London
serum 6 (individual 6) = system: serum 6 (individual 6)
serum 37 (individual 37) = system: serum 37 (individual 37)
[4] = system: serum 1b (individual 1, late serum)
serum SARS-green = system: serum SARS-green

For AVIQEIQLLAAVGEI, the “Binding of serum 62 to linear peptides of Orf14 of SARS-CoV TOR2” value (serum 62 (individual 62)) was 2.1, the “Binding of serum 2 to linear peptides of Orf14 of SARS-CoV TOR2” value (serum 2 (individual 2)) was 1.7 and the “Control Serum Blood-Bank Looped peptides” value [1] was 0.5. For the same sequence, the “Control serum Blood-bank linear peptides” value [1] was 1.8, the “Control serum LUMC linear peptides” value [2] was 1.4 and the “Control serum LUMC looped peptides” value [2] was 0.5. For the same sequence, the “Binding of serum SARS-yellow to linear peptides of Orf14 of SARS-CoV TOR2” value (from here on “Binding of serum SARS-yellow”) (serum SARS-yellow) was 2.3, the “Binding of serum 1a to linear peptides of Orf14 of SARS-CoV TOR2” value (shortened to “Binding of serum 1a”) [3] was 2.1 and the “Binding of serum London to linear peptides of Orf14 of SARS-CoV TOR2” value (shortened to “Binding of serum London”) (serum London) was 1.7. For the same sequence, the “Binding of serum 6 to linear peptides of Orf14 of SARS-CoV TOR2” value (serum 6 (individual 6)) was 2.0, the “Binding of serum 37 to linear peptides of Orf14 of SARS-CoV TOR2” value (serum 37 (individual 37)) was 1.7 and the “Binding of serum 1b to linear peptides of Orf14 of SARS-CoV TOR2” value (shortened to “Binding of serum 1b”) [4] was 2.4. For the same sequence, the “Binding of serum SARS-green to linear peptides of Orf14 of SARS-CoV TOR2” value (shortened to “Binding of serum SARS-green”) (serum SARS-green) was 2.5.
With EAEAAVKPLLAPHHV the “Binding of serum 62 to linear peptides of Orf14 of SARS-CoV TOR2” value (serum 62 (individual 62)) was 0.4, the “Binding of serum 2 to linear peptides of Orf14 of SARS-CoV TOR2” value (serum 2 (individual 2)) was 0.7 and the “Control Serum Blood-Bank Looped peptides” value [1] was 0.7. For the same sequence, the “Control serum Blood-bank linear peptides” value [1] was 0.4, the “Control serum LUMC linear peptides” value [2] was 0.4 and the “Control serum LUMC looped peptides” value [2] was 0.6. The “Binding of serum SARS-yellow” value (serum SARS-yellow) was 0.2, the “Binding of serum 1a” value [3] was 0.5 and the “Binding of serum London” value (serum London) was 0.6. The “Binding of serum 6 to linear peptides of Orf14 of SARS-CoV TOR2” value (serum 6 (individual 6)) was 0.4, the “Binding of serum 37 to linear peptides of Orf14 of SARS-CoV TOR2” value (serum 37 (individual 37)) was 0.5 and the “Binding of serum 1b” value [4] was 0.3. For the same sequence, the “Binding of serum SARS-green” value (serum SARS-green) was 0.4.
EILLLEWLAEVVKLP was tested, and the “Binding of serum 62 to linear peptides of Orf14 of SARS-CoV TOR2” value (serum 62 (individual 62)) was 0.5, the “Binding of serum 2 to linear peptides of Orf14 of SARS-CoV TOR2” value (serum 2 (individual 2)) was 0.5 and the “Control Serum Blood-Bank Looped peptides” value [1] was 0.7. The “Control serum Blood-bank linear peptides” value [1] was 0.7, the “Control serum LUMC linear peptides” value [2] was 0.6 and the “Control serum LUMC looped peptides” value [2] was 0.6. For the same sequence, the “Binding of serum SARS-yellow” value (serum SARS-yellow) was 0.4, the “Binding of serum 1a” value [3] was 0.5 and the “Binding of serum London” value (serum London) was 0.7. The “Binding of serum 6 to linear peptides of Orf14 of SARS-CoV TOR2” value (serum 6 (individual 6)) was 0.7, the “Binding of serum 37 to linear peptides of Orf14 of SARS-CoV TOR2” value (serum 37 (individual 37)) was 0.6 and the “Binding of serum 1b” value [4] was 0.5. The “Binding of serum SARS-green” value (serum SARS-green) was 0.4.
EIQLLAAVGEILLLE was tested, and the “Binding of serum 62 to linear peptides of Orf14 of SARS-CoV TOR2” value (serum 62 (individual 62)) was 0.4, the “Binding of serum 2 to linear peptides of Orf14 of SARS-CoV TOR2” value (serum 2 (individual 2)) was 0.5 and the “Control Serum Blood-Bank Looped peptides” value [1] was 0.7. For the same sequence, the “Control serum Blood-bank linear peptides” value [1] was 0.4, the “Control serum LUMC linear peptides” value [2] was 0.8 and the “Control serum LUMC looped peptides” value [2] was 0.7. For the same sequence, the “Binding of serum SARS-yellow” value (serum SARS-yellow) was 0.5, the “Binding of serum 1a” value [3] was 0.6 and the “Binding of serum London” value (serum London) was 0.4. The “Binding of serum 6 to linear peptides of Orf14 of SARS-CoV TOR2” value (serum 6 (individual 6)) was 0.4, the “Binding of serum 37 to linear peptides of Orf14 of SARS-CoV TOR2” value (serum 37 (individual 37)) was 0.6 and the “Binding of serum 1b” value [4] was 0.5. For the same sequence, the “Binding of serum SARS-green” value (serum SARS-green) was 0.3.
In the case of EWLAEVVKLPSRYCC, the “Binding of serum 62 to linear peptides of Orf14 of SARS-CoV TOR2” value (serum 62 (individual 62)) is reported as 0.7, the “Binding of serum 2 to linear peptides of Orf14 of SARS-CoV TOR2” value (serum 2 (individual 2)) is reported as 0.7 and the “Control Serum Blood-Bank Looped peptides” value [1] is reported as 0.7. For the same sequence, the “Control serum Blood-bank linear peptides” value [1] was 0.7, the “Control serum LUMC linear peptides” value [2] was 0.6 and the “Control serum LUMC looped peptides” value [2] was 0.6. The “Binding of serum SARS-yellow” value (serum SARS-yellow) was 0.3, the “Binding of serum 1a” value [3] was 0.8 and the “Binding of serum London” value (serum London) was 1.0. For the same sequence, the “Binding of serum 6 to linear peptides of Orf14 of SARS-CoV TOR2” value (serum 6 (individual 6)) was 0.6, the “Binding of serum 37 to linear peptides of Orf14 of SARS-CoV TOR2” value (serum 37 (individual 37)) was 1.0 and the “Binding of serum 1b” value [4] was 0.6. The “Binding of serum SARS-green” value (serum SARS-green) was 0.6.
GEILLLEWLAEVVKL was tested, and the “Binding of serum 62 to linear peptides of Orf14 of SARS-CoV TOR2” value (serum 62 (individual 62)) was 0.5, the “Binding of serum 2 to linear peptides of Orf14 of SARS-CoV TOR2” value (serum 2 (individual 2)) was 0.4 and the “Control Serum Blood-Bank Looped peptides” value [1] was 0.5. The “Control serum Blood-bank linear peptides” value [1] was 0.6, the “Control serum LUMC linear peptides” value [2] was 0.5 and the “Control serum LUMC looped peptides” value [2] was 0.5. For the same sequence, the “Binding of serum SARS-yellow” value (serum SARS-yellow) was 0.3, the “Binding of serum 1a” value [3] was 0.5 and the “Binding of serum London” value (serum London) was 0.6. The “Binding of serum 6 to linear peptides of Orf14 of SARS-CoV TOR2” value (serum 6 (individual 6)) was 0.5, the “Binding of serum 37 to linear peptides of Orf14 of SARS-CoV TOR2” value (serum 37 (individual 37)) was 0.6 and the “Binding of serum 1b” value [4] was 0.4. For the same sequence, the “Binding of serum SARS-green” value (serum SARS-green) was 0.3.
HHVVAVIQEIQLLAA was tested, and the “Binding of serum 62 to linear peptides of Orf14 of SARS-CoV TOR2” value (serum 62 (individual 62)) was 0.3, the “Binding of serum 2 to linear peptides of Orf14 of SARS-CoV TOR2” value (serum 2 (individual 2)) was 0.4 and the “Control Serum Blood-Bank Looped peptides” value [1] was 0.5. For the same sequence, the “Control serum Blood-bank linear peptides” value [1] was 0.4, the “Control serum LUMC linear peptides” value [2] was 0.4 and the “Control serum LUMC looped peptides” value [2] was 0.4. The “Binding of serum SARS-yellow” value (serum SARS-yellow) was 0.4, the “Binding of serum 1a” value [3] was 0.4 and the “Binding of serum London” value (serum London) was 0.4. For the same sequence, the “Binding of serum 6 to linear peptides of Orf14 of SARS-CoV TOR2” value (serum 6 (individual 6)) was 0.4, the “Binding of serum 37 to linear peptides of Orf14 of SARS-CoV TOR2” value (serum 37 (individual 37)) was 0.5 and the “Binding of serum 1b” value [4] was 0.4. For the same sequence, the “Binding of serum SARS-green” value (serum SARS-green) was 0.2.
With HVVAVIQEIQLLAAV the “Binding of serum 62 to linear peptides of Orf14 of SARS-CoV TOR2” value (serum 62 (individual 62)) was 0.3, the “Binding of serum 2 to linear peptides of Orf14 of SARS-CoV TOR2” value (serum 2 (individual 2)) was 0.5 and the “Control Serum Blood-Bank Looped peptides” value [1] was 0.6. The “Control serum Blood-bank linear peptides” value [1] was 0.4, the “Control serum LUMC linear peptides” value [2] was 0.5 and the “Control serum LUMC looped peptides” value [2] was 0.4. For the same sequence, the “Binding of serum SARS-yellow” value (serum SARS-yellow) was 0.4, the “Binding of serum 1a” value [3] was 0.5 and the “Binding of serum London” value (serum London) was 0.4. For the same sequence, the “Binding of serum 6 to linear peptides of Orf14 of SARS-CoV TOR2” value (serum 6 (individual 6)) was 0.4, the “Binding of serum 37 to linear peptides of Orf14 of SARS-CoV TOR2” value (serum 37 (individual 37)) was 0.6 and the “Binding of serum 1b” value [4] was 0.4. The “Binding of serum SARS-green” value (serum SARS-green) was 0.1.
For ILLLEWLAEVVKLPS, the “Binding of serum 62 to linear peptides of Orf14 of SARS-CoV TOR2” value (serum 62 (individual 62)) was 0.4, the “Binding of serum 2 to linear peptides of Orf14 of SARS-CoV TOR2” value (serum 2 (individual 2)) was 0.5 and the “Control Serum Blood-Bank Looped peptides” value [1] was 0.7. The “Control serum Blood-bank linear peptides” value [1] was 0.6, the “Control serum LUMC linear peptides” value [2] was 0.5 and the “Control serum LUMC looped peptides” value [2] was 0.6. For the same sequence, the “Binding of serum SARS-yellow” value (serum SARS-yellow) was 0.3, the “Binding of serum 1a” value [3] was 0.5 and the “Binding of serum London” value (serum London) was 0.5. The “Binding of serum 6 to linear peptides of Orf14 of SARS-CoV TOR2” value (serum 6 (individual 6)) was 0.5, the “Binding of serum 37 to linear peptides of Orf14 of SARS-CoV TOR2” value (serum 37 (individual 37)) was 0.6 and the “Binding of serum 1b” value [4] was 0.4. The “Binding of serum SARS-green” value (serum SARS-green) was 0.1.
With IQEIQLLAAVGEILL the “Binding of serum 62 to linear peptides of Orf14 of SARS-CoV TOR2” value (serum 62 (individual 62)) was 0.4, the “Binding of serum 2 to linear peptides of Orf14 of SARS-CoV TOR2” value (serum 2 (individual 2)) was 0.4 and the “Control Serum Blood-Bank Looped peptides” value [1] was 0.6. The “Control serum Blood-bank linear peptides” value [1] was 0.4, the “Control serum LUMC linear peptides” value [2] was 0.6 and the “Control serum LUMC looped peptides” value [2] was 0.5. For the same sequence, the “Binding of serum SARS-yellow” value (serum SARS-yellow) was 0.4, the “Binding of serum 1a” value [3] was 0.5 and the “Binding of serum London” value (serum London) was 0.3. The “Binding of serum 6 to linear peptides of Orf14 of SARS-CoV TOR2” value (serum 6 (individual 6)) was 0.4, the “Binding of serum 37 to linear peptides of Orf14 of SARS-CoV TOR2” value (serum 37 (individual 37)) was 0.7 and the “Binding of serum 1b” value [4] was 0.4. For the same sequence, the “Binding of serum SARS-green” value (serum SARS-green) was 0.3.
IQLLAAVGEILLLEW was tested, and the “Binding of serum 62 to linear peptides of Orf14 of SARS-CoV TOR2” value (serum 62 (individual 62)) was 0.4, the “Binding of serum 2 to linear peptides of Orf14 of SARS-CoV TOR2” value (serum 2 (individual 2)) was 0.5 and the “Control Serum Blood-Bank Looped peptides” value [1] was 0.6. The “Control serum Blood-bank linear peptides” value [1] was 0.5, the “Control serum LUMC linear peptides” value [2] was 0.6 and the “Control serum LUMC looped peptides” value [2] was 0.5. The “Binding of serum SARS-yellow” value (serum SARS-yellow) was 0.4, the “Binding of serum 1a” value [3] was 0.5 and the “Binding of serum London” value (serum London) was 0.4. For the same sequence, the “Binding of serum 6 to linear peptides of Orf14 of SARS-CoV TOR2” value (serum 6 (individual 6)) was 0.4, the “Binding of serum 37 to linear peptides of Orf14 of SARS-CoV TOR2” value (serum 37 (individual 37)) was 0.6 and the “Binding of serum 1b” value [4] was 0.4. For the same sequence, the “Binding of serum SARS-green” value (serum SARS-green) was 0.2.
